Assay results from ChEMBL document CHEMBL2424629, “Structure-based design, synthesis, and anticonvulsant activity of isatin-1-N-phenylacetamide derivatives” (Med Chem Res, 2013).
The source made the active and inactive calls. No cut-off for these calls is given here.

What was measured:
Mus musculus [1] = organism: Mus musculus; experiment: Protective index, ratio of TD50 for BALB/c mouse by rotarod test to ED50 for BALB/c mouse by maximal electroshock seizure test; format: functional
[2] = Neurotoxicity in ip dosed BALB/c mouse after 30 mins by rotarod test; format: toxicity, organism-based; details: in vivo
Mus musculus [3] = experiment: Neurotoxicity in BALB/c mouse at 100 mg/kg, ip after 0.5 to 4 hrs by rotarod test; format: toxicity, organism-based; design: dose 100 mg/kg, route intraperitoneal; details: in vivo
Mus musculus [4] = experiment: Anticonvulsant activity in ip dosed BALB/c mouse assessed as protection against maximal electroshock-induced seizure after 30 mins; format: functional; details: 0.5 h
Mus musculus [5] = experiment: Anticonvulsant activity in BALB/c mouse assessed as protection against maximal electroshock-induced seizure at 100 mg/kg, ip after 0.5 to 4 hrs; format: functional, organism-based; design: dose 100 mg/kg
Mus musculus [6] = experiment: Neurotoxicity in BALB/c mouse at 300 mg/kg, ip after 0.5 to 4 hrs by rotarod test; format: toxicity, organism-based; design: dose 300 mg/kg, route intraperitoneal; details: in vivo
Mus musculus [7] = experiment: Anticonvulsant activity in BALB/c mouse assessed as protection against maximal electroshock-induced seizure at 300 mg/kg, ip after 0.5 to 4 hrs; format: functional, organism-based; design: dose 300 mg/kg

Structure (SMILES) | Ratio TD50/ED50 (Mus musculus [1]) | TD50 at 0.5 h [2] [mg/kg] | Activity (Mus musculus [3]) | ED50 (Mus musculus [4]) [mg/kg] | Activity (Mus musculus [5]) | Activity (Mus musculus [6]) | Activity (Mus musculus [7])
Cc1ccc2c(c1)N(CC(=O)Nc1ccccc1)C(=O)C2=O | >7.3 | > 1000 | Non-toxic | 136 | Active | Non-toxic | –
O=C(CN1C(=O)C(=O)c2cc(Br)cc(Br)c21)Nc1ccccc1 | – | – | Non-toxic | – | – | Non-toxic | Active
O=C(CN1C(=O)C(=O)c2ccc(Cl)cc21)Nc1ccccc1 | – | – | Non-toxic | – | inactive | Non-toxic | –
O=C(CN1C(=O)C(=O)c2cc(Cl)ccc21)Nc1ccccc1 | >7.3 | > 800 | Non-toxic | 110 | Active | Non-toxic | –
O=C(CN1C(=O)C(=O)c2cc(Br)ccc21)Nc1ccccc1 | – | – | Non-toxic | – | Active | Non-toxic | –
O=C(CN1C(=O)C(=O)c2cccc([N+](=O)[O-])c21)Nc1ccccc1 | – | – | Non-toxic | – | Active | Non-toxic | –
NC(=O)N1c2ccccc2C=Cc2ccccc21 [CARBAMAZEPINE] | – | > 71.6 | – | 8.8 | – | – | –
O=C(CN1C(=O)C(=O)c2cccc(Cl)c21)Nc1ccccc1 | – | – | Non-toxic | – | Active | Non-toxic | –
O=C(CN1C(=O)C(=O)c2cc(F)ccc21)Nc1ccccc1 | >9.1 | > 800 | Non-toxic | 88 | Active | Non-toxic | –
O=C(CN1C(=O)C(=O)c2ccc(F)cc21)Nc1ccccc1 | – | – | Non-toxic | – | inactive | Non-toxic | –
O=C(CN1C(=O)C(=O)c2ccccc21)Nc1ccccc1 | >10.6 | > 1000 | Non-toxic | 94.7 | Active | Non-toxic | –
Cc1cccc2c1N(CC(=O)Nc1ccccc1)C(=O)C2=O | >8.8 | > 1000 | Non-toxic | 114 | Active | Non-toxic | –
O=C(CN1C(=O)C(=O)c2cccc(Br)c21)Nc1ccccc1 | – | – | Non-toxic | – | inactive | Non-toxic | –
Cc1ccc2c(c1)C(=O)C(=O)N2CC(=O)Nc1ccccc1 | >11 | > 1000 | Non-toxic | 91.3 | Active | Non-toxic | –
O=C1Nc2ccccc2C1=O [ISATIN] | – | – | Non-toxic | – | – | Non-toxic | Active
CCC1(c2ccccc2)C(=O)NC(=O)NC1=O [PHENOBARBITAL] | – | > 69 | – | 21.8 | – | – | –
O=C(CN1C(=O)C(=O)c2ccc(Br)cc21)Nc1ccccc1 | – | – | Non-toxic | – | inactive | Non-toxic | –
